Measured values as given in US6482849B1, “Inhibitors of α4β1 mediated cell adhesion” (Tanabe Seiyaku Co., Ltd., priority 1997, dated 2002).
pIC50: −log10 of the molar value. Where two headings read alike, the source gives them in different places.

What was measured:
[1] = biological target: T1, α4β1 integrin (Jurkat T-cell adhesion to IL-1 stimulated endothelial cell monolayers) (Homo sapiens, UniProt P05556+P13612); test: Jurkat-Endothelial Cell Adhesion Assay (Jurkat EC); assay type: cell-based; settings: Jurkat cells on IL-1 stimulated HUVEC monolayers
T1 construct: a T-cell line, Jurkat, known to express the α4β1 integrin; host or cells: Jurkat T-cell line
T1 sequence (P13612 34-1032): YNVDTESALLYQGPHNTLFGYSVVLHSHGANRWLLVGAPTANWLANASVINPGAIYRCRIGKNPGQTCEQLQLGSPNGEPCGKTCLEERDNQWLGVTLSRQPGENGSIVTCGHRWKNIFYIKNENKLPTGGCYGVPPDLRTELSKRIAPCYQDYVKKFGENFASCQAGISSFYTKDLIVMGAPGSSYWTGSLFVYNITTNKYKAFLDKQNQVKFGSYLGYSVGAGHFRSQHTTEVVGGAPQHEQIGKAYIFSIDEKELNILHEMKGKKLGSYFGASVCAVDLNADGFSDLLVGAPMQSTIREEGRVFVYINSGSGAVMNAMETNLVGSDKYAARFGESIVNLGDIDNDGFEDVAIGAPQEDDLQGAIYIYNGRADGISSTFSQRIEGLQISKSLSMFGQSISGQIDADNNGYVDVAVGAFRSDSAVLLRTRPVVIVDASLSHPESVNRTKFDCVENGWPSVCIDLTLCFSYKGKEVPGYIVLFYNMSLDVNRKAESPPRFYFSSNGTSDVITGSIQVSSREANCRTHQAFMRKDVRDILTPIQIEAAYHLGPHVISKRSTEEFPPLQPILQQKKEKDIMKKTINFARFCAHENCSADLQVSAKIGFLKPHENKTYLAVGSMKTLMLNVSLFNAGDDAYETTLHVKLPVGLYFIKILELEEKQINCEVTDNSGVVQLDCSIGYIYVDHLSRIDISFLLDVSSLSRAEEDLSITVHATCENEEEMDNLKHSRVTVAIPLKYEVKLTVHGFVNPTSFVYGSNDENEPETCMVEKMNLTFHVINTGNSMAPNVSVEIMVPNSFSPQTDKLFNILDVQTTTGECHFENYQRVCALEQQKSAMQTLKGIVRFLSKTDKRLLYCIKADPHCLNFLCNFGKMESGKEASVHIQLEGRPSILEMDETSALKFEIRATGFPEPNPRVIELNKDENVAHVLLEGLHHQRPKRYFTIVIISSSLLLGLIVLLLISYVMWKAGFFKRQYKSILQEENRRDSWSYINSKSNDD
T1 sequence (P05556 21-798): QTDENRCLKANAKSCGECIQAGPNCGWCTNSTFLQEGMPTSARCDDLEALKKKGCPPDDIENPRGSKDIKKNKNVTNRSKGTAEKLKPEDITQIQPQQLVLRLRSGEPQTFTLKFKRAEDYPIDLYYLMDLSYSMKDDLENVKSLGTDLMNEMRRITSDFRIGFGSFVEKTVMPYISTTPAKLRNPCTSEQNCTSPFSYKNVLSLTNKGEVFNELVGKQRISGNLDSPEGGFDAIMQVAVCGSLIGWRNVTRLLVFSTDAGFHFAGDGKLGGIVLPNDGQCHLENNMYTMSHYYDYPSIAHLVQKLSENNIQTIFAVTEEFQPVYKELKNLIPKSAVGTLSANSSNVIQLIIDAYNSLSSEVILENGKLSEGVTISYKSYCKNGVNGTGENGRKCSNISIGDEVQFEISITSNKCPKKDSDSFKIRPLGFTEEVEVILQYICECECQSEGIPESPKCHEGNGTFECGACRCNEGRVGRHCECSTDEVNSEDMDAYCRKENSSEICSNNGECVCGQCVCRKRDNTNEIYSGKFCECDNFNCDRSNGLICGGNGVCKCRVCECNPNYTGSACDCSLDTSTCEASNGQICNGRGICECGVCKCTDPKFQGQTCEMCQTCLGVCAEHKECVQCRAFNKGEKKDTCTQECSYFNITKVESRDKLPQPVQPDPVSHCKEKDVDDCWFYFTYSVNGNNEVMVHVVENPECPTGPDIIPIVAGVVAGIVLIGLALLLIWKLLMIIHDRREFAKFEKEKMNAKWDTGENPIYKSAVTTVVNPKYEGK
Procedure, shortened: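 BCECF-loaded Jurkat cells (5×10^5) mixed with compound (generally 100, 20, 5 and 1.25 μM) and added to HUVEC monolayers prestimulated 4 hr with 0.1 ng/ml IL-1, in DMEM-HSA. After 5 min on ice and 20 min at 37° C, washed; fluorescence gives % adhesion relative to no-compound control set at 100%.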

[2] = biological target: T2, α4β1 integrin (Jurkat cell adhesion to immobilized CS-1 derived peptide CLHPGEILDVPST) (Homo sapiens, UniProt P05556+P13612); test: Jurkat-CS-1 Assay; assay type: cell-based; settings: Jurkat cells on CS-1 peptide coated plates
T2 construct: 100 μl of Jurkat cells (2.5×10^6 cells/ml) in DMEM plus BSA; endogenous in cells; host or cells: Jurkat T-cell line
T2 sequence (P13612 34-1032): as the sequence (P13612 34-1032) above
T2 sequence (P05556 21-798): as the sequence (P05556 21-798) above
Procedure, shortened: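 CS-1 peptide was SPDP-crosslinked onto HSA-coated plates and blocked with BSA. Jurkat cells (2.5×10^6 cells/ml) in DMEM/BSA were mixed with compound, generally at 100, 20, 5 and 1.25 μM, and allowed to adhere for 1 hr at 37° C. Bound cells were fixed, stained with toluidine blue and quantified by OD590.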

[3] = test system: VLA-4 integrin-dependent eosinophil infiltration; test: Dextran pleurisy model (dextran-induced pleural leukocyte infiltration); assay type: in vivo, C57BL/6 mice; settings: Mus musculus, 4 h post-induction; for change in vivo at 25 mg/kg: 25 mg/kg × 2 iv (0h,+1h relative to dextran)
Experimental: C57BL/6 mice (Jackson, Bar Harbor, Me.;), 6-8 weeks old, weighing 20-25 g were used throughout. All mice were acclimated for at least 7-14 days after arrival and maintained under controlled temperature (20-22° C.) and a 12 hr daily light cycle (6.00 A.M.-6.00 P.M.). Mice were housed in laminar flow racks and checked biweekly for viral infections (mouse hepatitis virus, minute virus of mice, rodent orphan parvovirus, Sendai) with kits obtained from Oreganon Teknika (Durham, N.C.) using established enzyme-linked immunoabsorbent assays. Mice testing positive for any of the above were omitted from the study. All mice were fed standard laboratory chow (Upjohn Lab Rodent Irradiated Mouse Chow, #5011-3, PMI Feeds, St. Louis, Mo.) and acidified drinking water (pH 5.0) ad libitum.
Intrapleural injections were made using a 27 G needle cut to 3-4 mm and blunted by filing. Injections were made by inserting the needle between the mid-intercostal ribs on the right side of the thoracic cavity.
Dextran (MW 5-40×10^6, St Louis, Mo.) was injected as a 10% solution in saline in a volume of 100 μl/mouse. Care was taken to avoid bleeding at the site of injection at which the intercostal muscles were cut to facilitate smooth insertion of the needle.
Pleural leukocytes were collected as follows: 4 h post-induction, pleural inflammatory exudate was removed by washing with 2×1.0 ml Ca^++/Mg^++ free HBSS (Gibco, Grand Island, N.Y.) containing 45 mg EDTA/100 ml HBSS, 4° C. Total leukocyte counts were made by hemocytometer following erythrocyte lysis in 2% acetic acid in PBS buffer; exudate leukocyte pellets were resuspended in serum for cytospin preparations and stained (Diff Quik, Baxter Healthcare, McGraw Park, Ill.) for differential leukocyte counts (neutrophils, eosinophils, and mononuclear leukocytes).
The pleural cavities of mice receiving either no intrapleural injection, or saline were washed and the cells counted in the same way to estimate baseline or saline-induced pleural leukocyte counts respectively.
All drugs were dissolved in PBS and the pH adjusted to 7.5 with NaOH. Each drug was administered intravenously through the retroorbital sinus at hourly intervals (0-3 h) starting from time “0” as indicated.
The following camphoric acid analogues were tested for their inhibitory effects on dextran-induced leukocyte infiltration: Examples 4, 12, 54, 63, 166, 93, 180, 181, 183, 184, 217, Camphoric acid or PBS (saline) was administered iv. as a control. Inhibition of eosinophil infiltration, which was suppressed by anti-alpha-4 Mab (PS/2, 50%), was used as a readout of VLA-4 antagonist activity of the camphoric acids tested. Data for neutrophils are also reported.

[4] = test system: contact hypersensitivity response; settings: in vivo; cited from earlier work
[5] = Eosinophil, 50 mg/kg × 2 iv (0h,+1h relative to dextran), read-out: %Δ Pleural Leukocytes, Eos
[6] = Neutrophil, 50 mg/kg × 2 iv (0h,+1h relative to dextran), read-out: %Δ Pleural Leukocytes, Neutro
[7] = Eosinophil, read-out: %Δ Pleural Leukocytes, Eos
[8] = Neutrophil, read-out: %Δ Pleural Leukocytes, Neutro

| Molecule | pIC50 [1] | pIC50 [2] | melting point | change in vivo at 50 mg/kg [3, 5] | change in vivo at 50 mg/kg [3, 6] | change in vivo at 50 mg/kg ([3]; Eosinophil, 50 mg/kg × 4 iv (0h,+1h,+2h,+3h relative to dextran), read-out: %Δ Pleural Leukocytes, Eos) | change in vivo at 50 mg/kg ([3]; Neutrophil, 50 mg/kg × 4 iv (0h,+1h,+2h,+3h relative to dextran), read-out: %Δ Pleural Leukocytes, Neutro) | change in vivo at 25 mg/kg [3, 7] | change in vivo at 25 mg/kg [3, 8] | Contact hypersensitivity response [4] |
| --- | --- | --- | --- | --- | --- | --- | --- | --- | --- | --- |
| CC1(C)[C@@H](C(=O)N[C@@H](Cc2cn(Cc3ccc(Cl)c(Cl)c3)cn2)C(=O)O)CC[C@@]1(C)C(=O)O [Example 4, (1S-cis)-N-[(3-Carboxy-2,2,3-trimethylcyclopentyl)carbonyl]-1-[(3,4-dichlorophenyl)methyl]-L-histidine] | 5.30 to 6.10 | 6.30 to 7.10 | 148 to 149 °C (dec.) | ≤ -50% | -50 to -10% |  |  |  |  |  |
| CC1(C)[C@@H](C(=O)N[C@@H](Cc2ccc(NC(=O)c3c(Cl)cccc3Cl)cc2)C(=O)O)CC[C@@]1(C)C(=O)O [Example 54, (1S-cis)-N-[(3-Carboxy-2,2,3-trimethylcyclopentyl)carbonyl]-4-[(2,6-dichlorobenzoyl)amino]-L-phenylalanine] | ≥ 6.10 | ≥ 7.10 | 231 to 233 °C |  |  | ≤ -50% | -50 to -10% |  |  |  |
| CC1(C)[C@@H](C(=O)N[C@@H](Cc2ccc(OCc3c(Cl)cccc3Cl)c([N+](=O)[O-])c2)C(=O)O)CC[C@@]1(C)C(=O)O [Example 63] | 5.30 to 6.10 | ≥ 7.10 | 92 to 94 °C | -50 to -10% | -50 to -10% |  |  | -50 to -10% | -50 to -10% |  |
| CC1(C)[C@@H](C(=O)N[C@@H](Cc2ccc(NC(=O)c3c(Cl)cc(Cl)cc3Cl)cc2)C(=O)O)CC[C@@]1(C)C(=O)O [Example 93] | ≥ 6.10 | ≥ 7.10 |  | -50 to -10% | -10 to 0% |  |  |  |  |  |
| CC1(C)[C@@H](C(=O)N[C@@H](Cc2ccc(NC(=O)c3c(Cl)cccc3Cl)cc2)C(=O)O)CC[C@@]1(C)C(N)=O [Example 166] | ≥ 6.10 | ≥ 7.10 | 196 to 198 °C | -50 to -10% | -10 to 0% |  |  |  |  |  |
| CC1(C)[C@@H](C(=O)N[C@@H](Cc2ccc(NC(=O)c3c(Cl)cccc3Cl)cc2)C(=O)O)CC[C@@]1(C)C(=O)NCC(N)=O [Example 180, (1S-cis)-N-[[3-[[(2-Amino-2-oxoethyl)amino]-carbonyl]-2,2,3-trimethylcyclopentyl]carbonyl]-4-[(2,6-dichlorobenzoyl)amino]-L-phenylalanine] | ≥ 6.10 | ≥ 7.10 | 203 to 205 °C | -50 to -10% | -50 to -10% |  |  | -50 to -10% | -50 to -10% |  |
| CC1(C)[C@@H](C(=O)N[C@@H](Cc2ccc(NC(=O)c3c(Cl)cccc3Cl)cc2)C(=O)O)CC[C@@]1(C)C(=O)NCC(=O)O [Example 181, (1S-cis)-N-[[3-[[(Carboxymethyl)amino]carbonyl]-2,2,3-trimethylcyclopentyl]carbonyl]-4-[(2,6-dichlorobenzoyl)amino]-L-phenylalanine] | ≥ 6.10 | ≥ 7.10 |  | -50 to -10% | -50 to -10% |  |  | -50 to -10% | -50 to -10% |  |
| CC1(C)[C@@H](C(=O)N[C@@H](Cc2ccc(NC(=O)c3c(Cl)cccc3Cl)cc2)C(=O)O)CC[C@@]1(C)C#N [Example 184, (1S-cis)-N-[[3-Cyano-2,2,3-trimethylcyclopentyl]carbonyl]-4-[(2,6-dichlorobenzoyl)amino]-L-phenylalanine] | ≥ 6.10 | ≥ 7.10 |  | ≤ -50% | -50 to -10% |  |  | -50 to -10% | -50 to -10% |  |
| CC1(C)[C@@H](C(=O)N[C@@H](Cc2ccc(NC(=O)c3c(Cl)cccc3Cl)cc2)C(=O)O)CC[C@@]1(C)C(=O)NOCc1ccccc1 [Example 217] | ≥ 6.10 | ≥ 7.10 |  | -50 to -10% | -10 to 0% |  |  |  |  |  |
| EILDV |  |  |  |  |  |  |  |  |  | blocked |
